From patent publication US20100168133A1, “USE OF SUBSTITUTED QUINOLINE DERIVATIVES FOR THE TREATMENT OF DRUG RESISTANT MYCOBACTERIAL DISEASES” (priority 2004, published 2010)
In brackets after ≈: the same amount, converted by molar mass. Where two headings read alike, the source gives them in different places.

Assays:
[1] = system: M. tuberculosis strain H37Rv; assay: In vivo susceptibility of M. tuberculosis to compound 12 in combination with other antimycobacterial agents, lung CFU (Tables 13, 14); parameters: species or system Swiss mice; settings: for CFU 1 month (lung) / CFU 2 months (lung): once-a-day group (gavage 5 days/week from day 14), D0 = 7.23; for CFU 1 month (lung): lung CFU after 1 month of treatment; for CFU 2 months (lung): lung CFU after 2 months of treatment; for Decrease 1 mo vs D0 (lung CFU) / Decrease 2 mo vs D0 (lung CFU) / % positive mice 2nd month: once-a-day group; for Decrease 1 mo vs D0 (lung CFU): 1 month of treatment versus D0 (7.23); for Decrease 2 mo vs D0 (lung CFU): 2 months of treatment versus D0 (7.23); for % positive mice 2nd month: culture-positive mice / mice examined after 2 months; for % positive mice / lung CFU*: once-a-week group, after 2 months of treatment; for lung CFU*: by gavage, D0 value 7.23
M. fortuitum = assay: In-vitro MIC in solid medium against fluoroquinolone-resistant clinical isolates; format: cell-based; settings: Mycolicibacterium fortuitum, no mutation indicated, Table 10 1st strain
[2] = system: M. tuberculosis H37Rv strain; format: in vivo, Swiss female mice
M. avium = format: cell-based; settings: M. avium resistant to fluoroquinolones, mutation Ala83Val (Table 9)
[3] = […], treatment from day 14, five times weekly, title: 2 months (footnote: four weeks, sacrifice day 42)

COc1nc2ccc(Br)cc2cc1[C@@H](c1ccccc1)[C@@](O)(CCN(C)C)c1cccc2ccccc12 [Compound 12, (αS,βR)-6-bromo-α-[2-(dimethylamino)ethyl]-2-methoxy-α-1-naphthalenyl-β-phenyl-3-quinolineethanol]
CFU 1 month (lung) [1]: 4.14 | CFU 2 months (lung) [1]: 2.28 | Decrease 1 mo vs D0 (lung CFU) [1]: −3.09 | Decrease 2 mo vs D0 (lung CFU) [1]: −4.95 | % positive mice 2nd month [1]: 8/10 | % positive mice [1]: 9/9 | lung CFU* [1]: 1.99 +/− 0.75 | MIC (M. fortuitum): 0.01 µg/mL (≈ 0.018 µM) | Mean CFU (log10) per Lung [2, 3]: 0.22 ± 0.32 log10 | Mean CFU (log10) per Spleen [2, 3]: 1.24 ± 0.50 log10 | Spleen weight (mean) [2, 3]: 248 ± 47 mg | MIC (M. avium): 0.007 µg/mL (≈ 0.0126 µM)

COc1c(N2C[C@@H]3CCCN[C@@H]3C2)c(F)cc2c(=O)c(C(=O)O)cn(C3CC3)c12 [M, moxifloxacin]
CFU 1 month (lung) [1]: 5.51 | CFU 2 months (lung) [1]: 4.3 | Decrease 1 mo vs D0 (lung CFU) [1]: −1.72 | Decrease 2 mo vs D0 (lung CFU) [1]: −2.93 | % positive mice 2nd month [1]: 10/10 | % positive mice [1]: 7/7 | lung CFU* [1]: 6.44 +/− 0.5 | Mean CFU (log10) per Lung [2, 3]: 2.89 ± 0.57 log10 | Mean CFU (log10) per Spleen [2, 3]: 3.53 ± 0.34 log10 | Spleen weight (mean) [2, 3]: 400 ± 99 mg

CC1COc2c(N3CCN(C)CC3)c(F)cc3c(=O)c(C(=O)O)cn1c23 (stereo not drawn) [Ofloxacin, ofloxacin]
MIC (M. fortuitum): 1 µg/mL (≈ 2.77 µM)

CO[C@H]1/C=C/O[C@@]2(C)Oc3c(C)c(O)c4c(O)c(c(/C=N/N5CCN(C)CC5)c(O)c4c3C2=O)NC(=O)/C(C)=C\C=C\[C@H](C)[C@H](O)[C@@H](C)[C@@H](O)[C@@H](C)[C@H](OC(C)=O)[C@@H]1C [Rifampin, rifampin]
CFU 1 month (lung) [1]: 6.01 | CFU 2 months (lung) [1]: 4.07 | Decrease 1 mo vs D0 (lung CFU) [1]: −1.22 | Decrease 2 mo vs D0 (lung CFU) [1]: −3.16 | % positive mice 2nd month [1]: 10/10 | MIC (M. fortuitum): 128 µg/mL (≈ 156 µM) | Mean CFU (log10) per Lung ([2]; mouse, in vivo): 1.89 ± 0.50 log10 | Mean CFU (log10) per Spleen ([2]; mouse, in vivo): 2.75 ± 0.34 log10 | Spleen weight (mean) ([2]; mouse, in vivo): 391 ± 70 mg | MIC (M. avium): 16 µg/mL (≈ 19.4 µM)
